Laboratory results published in patent US12318403B2, “2′3′-cyclic dinucleotides and prodrugs thereof” (INSTITUTE OF ORGANIC CHEMISTRY AND BIOCHEMISTRY ASCR, V.V.I., priority 2019, dated 2025).

biological target: human wild type STING (WT STING) (Homo sapiens, UniProt Q86WV6, H232R); test: 293T WT STING standard reporter assay; type: cell-based; conditions: 293T WT STING EC50, 293T wtSTING-FL cells; standard reporter assay without digitonin; 7 hours; ISRE firefly luciferase
Sequence (Q86WV6 whole entry H232R): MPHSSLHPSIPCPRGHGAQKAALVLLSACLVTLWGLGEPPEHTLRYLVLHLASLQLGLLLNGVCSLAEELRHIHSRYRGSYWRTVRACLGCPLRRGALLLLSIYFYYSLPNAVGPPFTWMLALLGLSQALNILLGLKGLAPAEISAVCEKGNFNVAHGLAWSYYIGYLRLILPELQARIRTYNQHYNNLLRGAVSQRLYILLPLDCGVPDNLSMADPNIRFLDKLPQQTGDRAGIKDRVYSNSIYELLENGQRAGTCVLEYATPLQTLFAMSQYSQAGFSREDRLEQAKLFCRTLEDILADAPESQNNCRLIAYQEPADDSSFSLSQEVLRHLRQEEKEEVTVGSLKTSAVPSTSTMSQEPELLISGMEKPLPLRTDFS

| Compound | EC50 [nM] |
| --- | --- |
| CC(C)(C)C(=O)OCSP1(=O)CO[C@H]2[C@@H](F)[C@H](n3cnc4c(N)ncnc43)O[C@@H]2COP(=O)(O)O[C@@H]2[C@H](F)[C@@H](CO1)O[C@H]2n1cnc2c(=O)[nH]c(N)nc21 (single isomer, unassigned) [Compound 41a] | 10400 |
| CC(C)(C)C(=O)OCSP1(=O)CO[C@H]2[C@@H](F)[C@H](n3cnc4c(N)ncnc43)O[C@@H]2COP(=O)(O)O[C@@H]2[C@H](F)[C@@H](CO1)O[C@H]2n1cnc2c(=O)[nH]c(N)nc21 (single isomer, unassigned) [Compound 41b] | 87800 |
| CCCCCC(=O)Oc1ccc(CSP2(=O)CO[C@H]3[C@@H](F)[C@H](n4cnc5c(N)ncnc54)O[C@@H]3COP(=O)(O)O[C@@H]3[C@H](F)[C@@H](CO2)O[C@H]3n2cnc3c(=O)[nH]c(N)nc32)cc1 (single isomer, unassigned) [Compound 42a] | 300 |
| CCCCCC(=O)Oc1ccc(CSP2(=O)CO[C@H]3[C@@H](F)[C@H](n4cnc5c(N)ncnc54)O[C@@H]3COP(=O)(O)O[C@@H]3[C@H](F)[C@@H](CO2)O[C@H]3n2cnc3c(=O)[nH]c(N)nc32)cc1 (single isomer, unassigned) [Compound 42b] | 200 |
| CC(C)(C)C(=O)Oc1ccc(CSP2(=O)CO[C@H]3[C@@H](F)[C@H](n4cnc5c(N)ncnc54)O[C@@H]3COP(=O)(O)O[C@@H]3[C@H](F)[C@@H](CO2)O[C@H]3n2cnc3c(=O)[nH]c(N)nc32)cc1 (single isomer, unassigned) [Compound 43a] | 1200 |
| CC(C)(C)C(=O)Oc1ccc(CSP2(=O)CO[C@H]3[C@@H](F)[C@H](n4cnc5c(N)ncnc54)O[C@@H]3COP(=O)(O)O[C@@H]3[C@H](F)[C@@H](CO2)O[C@H]3n2cnc3c(=O)[nH]c(N)nc32)cc1 (single isomer, unassigned) [Compound 43b] | 3100 |
| CC(C)(C)C(=O)OCOc1ccc(CSP2(=O)CO[C@H]3[C@@H](F)[C@H](n4cnc5c(N)ncnc54)O[C@@H]3COP(=O)(O)O[C@@H]3[C@H](F)[C@@H](CO2)O[C@H]3n2cnc3c(=O)[nH]c(N)nc32)cc1 (single isomer, unassigned) [Compound 44a] | 1900 |
| CC(C)(C)C(=O)OCOc1ccc(CSP2(=O)CO[C@H]3[C@@H](F)[C@H](n4cnc5c(N)ncnc54)O[C@@H]3COP(=O)(O)O[C@@H]3[C@H](F)[C@@H](CO2)O[C@H]3n2cnc3c(=O)[nH]c(N)nc32)cc1 (single isomer, unassigned) [Compound 44b] | 500 |
| CCCCCCCC(=O)Oc1ccc(CSP2(=O)CO[C@H]3[C@@H](F)[C@H](n4cnc5c(N)ncnc54)O[C@@H]3COP(=O)(O)O[C@@H]3[C@H](F)[C@@H](CO2)O[C@H]3n2cnc3c(=O)[nH]c(N)nc32)cc1 (single isomer, unassigned) [Compound 45a] | 300 |
| CCCCCCCC(=O)Oc1ccc(CSP2(=O)CO[C@H]3[C@@H](F)[C@H](n4cnc5c(N)ncnc54)O[C@@H]3COP(=O)(O)O[C@@H]3[C@H](F)[C@@H](CO2)O[C@H]3n2cnc3c(=O)[nH]c(N)nc32)cc1 (single isomer, unassigned) [Compound 45b] | 150 |
| CCCCCCCCCC(=O)Oc1ccc(CSP2(=O)CO[C@H]3[C@@H](F)[C@H](n4cnc5c(N)ncnc54)O[C@@H]3COP(=O)(O)O[C@@H]3[C@H](F)[C@@H](CO2)O[C@H]3n2cnc3c(=O)[nH]c(N)nc32)cc1 (single isomer, unassigned) [Compound 46a] | 60 |
| CCCCCCCCCCCC(=O)Oc1ccc(CSP2(=O)CO[C@H]3[C@@H](F)[C@H](n4cnc5c(N)ncnc54)O[C@@H]3COP(=O)(O)O[C@@H]3[C@H](F)[C@@H](CO2)O[C@H]3n2cnc3c(=O)[nH]c(N)nc32)cc1 (single isomer, unassigned) [Compound 47a] | 50 |
| CCCCCCCCCCCC(=O)Oc1ccc(CSP2(=O)CO[C@H]3[C@@H](F)[C@H](n4cnc5c(N)ncnc54)O[C@@H]3COP(=O)(O)O[C@@H]3[C@H](F)[C@@H](CO2)O[C@H]3n2cnc3c(=O)[nH]c(N)nc32)cc1 (single isomer, unassigned) [Compound 47b] | 90 |
| CCCC(=O)Oc1ccc(CSP2(=O)CO[C@H]3[C@@H](F)[C@H](n4cnc5c(N)ncnc54)O[C@@H]3COP(=O)(O)O[C@@H]3[C@H](F)[C@@H](CO2)O[C@H]3n2cnc3c(=O)[nH]c(N)nc32)cc1 (single isomer, unassigned) [Compound 48a] | 5600 |
| CCCC(=O)Oc1ccc(CSP2(=O)CO[C@H]3[C@@H](F)[C@H](n4cnc5c(N)ncnc54)O[C@@H]3COP(=O)(O)O[C@@H]3[C@H](F)[C@@H](CO2)O[C@H]3n2cnc3c(=O)[nH]c(N)nc32)cc1 (single isomer, unassigned) [Compound 48b] | 3400 |
| CCCCCC(=O)Oc1ccc(C(=O)Oc2ccc(CSP3(=O)CO[C@H]4[C@@H](F)[C@H](n5cnc6c(N)ncnc65)O[C@@H]4COP(=O)(O)O[C@@H]4[C@H](F)[C@@H](CO3)O[C@H]4n3cnc4c(=O)[nH]c(N)nc43)cc2)cc1 (single isomer, unassigned) [Compound 49a] | 1800 |
| CCCCCC(=O)Oc1ccc(C(=O)Oc2ccc(CSP3(=O)CO[C@H]4[C@@H](F)[C@H](n5cnc6c(N)ncnc65)O[C@@H]4COP(=O)(O)O[C@@H]4[C@H](F)[C@@H](CO3)O[C@H]4n3cnc4c(=O)[nH]c(N)nc43)cc2)cc1 (single isomer, unassigned) [Compound 49b] | 4500 |
| CC(C)(C)C(=O)OCSP1(=O)CO[C@H]2[C@@H](F)[C@H](n3cnc4c(N)ncnc43)O[C@@H]2COP(=O)(SCOC(=O)C(C)(C)C)O[C@@H]2[C@H](F)[C@@H](CO1)O[C@H]2n1cnc2c(=O)[nH]c(N)nc21 (single isomer, unassigned) [Compound 55c] | 650 |
| CC(C)(C)C(=O)OCSP1(=O)CO[C@H]2[C@@H](F)[C@H](n3cnc4c(N)ncnc43)O[C@@H]2COP(=O)(SCOC(=O)C(C)(C)C)O[C@@H]2[C@H](F)[C@@H](CO1)O[C@H]2n1cnc2c(=O)[nH]c(N)nc21 (single isomer, unassigned) [Compound 55d] | 300 |
| CCCCCCCCCCCC(=O)OCSP1(=O)CO[C@H]2[C@@H](F)[C@H](n3cnc4c(N)ncnc43)O[C@@H]2COP(=O)(O)O[C@@H]2[C@H](F)[C@@H](CO1)O[C@H]2n1cnc2c(=O)[nH]c(N)nc21 (single isomer, unassigned) [Compound 76a] | 300 |
| CCCCCCCCCCCC(=O)OCSP1(=O)CO[C@H]2[C@@H](F)[C@H](n3cnc4c(N)ncnc43)O[C@@H]2COP(=O)(O)O[C@@H]2[C@H](F)[C@@H](CO1)O[C@H]2n1cnc2c(=O)[nH]c(N)nc21 (single isomer, unassigned) [Compound 76b] | 30 |
| CSP1(=O)CO[C@H]2[C@@H](F)[C@H](n3cnc4c(N)ncnc43)O[C@@H]2COP(=O)(SC)O[C@@H]2[C@H](F)[C@@H](CO1)O[C@H]2n1cnc2c(=O)[nH]c(N)nc21 (stereo partly drawn) [Compound 52c, (1S,6R,8R,9R,10R,16R,18R,19R)-18-(2-amino-6-oxo-6,9-dihydro-1H-purin-9-yl)-8-(6-amino-9H-purin-9-yl)-9,19-difluoro-3,13-bis(methylsulfanyl)-2,4,7,11,14,17-hexaoxa-3λ^5,13λ^5-diphosphatricyclo[14.2.1.0^6,10]nonadecane-3,13-dione] | > 20000 |
| CCCCCCCC(=O)OCSP1(=O)CO[C@H]2[C@@H](F)[C@H](n3cnc4c(N)ncnc43)O[C@@H]2COP(=O)(SCOC(=O)CCCCCCC)O[C@@H]2[C@H](F)[C@@H](CO1)O[C@H]2n1cnc2c(=O)[nH]c(N)nc21 (stereo partly drawn) [Compound 69b, {[(1S,6R,8R,9R,10R,16R,18R,19R)-18-(2-amino-6-oxo-6,9-dihydro-1H-purin-9-yl)-8-(6-amino-9H-purin-9-yl)-9,19-difluoro-13-{[(octanoyloxy)methyl]sulfanyl}-3,13-dioxo-2,4,7,11,14,17-hexaoxa-3λ^5,13λ^5-diphosphatricyclo[14.2.1.0^6,10]nonadecan-3-yl]sulfanyl}methyl octanoate] | 200 |

same assay, conditions: 293T wtSTING-FL cells; standard reporter assay without digitonin; 7 hours; ISRE firefly luciferase; read-out: 293T WT STING EC50

| Compound | EC50 [nM] |
| --- | --- |
| CC(C)(C)C(=O)OCOP1(=O)CO[C@H]2[C@@H](F)[C@H](n3cnc4c(N)ncnc43)O[C@@H]2COP(=O)(OCOC(=O)C(C)(C)C)O[C@@H]2[C@H](F)[C@@H](CO1)O[C@H]2n1cnc2c(N)ncnc21 (single isomer, unassigned) [Compound 81c] | 140 |

same assay, conditions: read-out: 293T WT STING EC50; 293T wtSTING-FL cells; standard reporter assay without digitonin; 7 hours; ISRE firefly luciferase

| Compound | EC50 [nM] |
| --- | --- |
| CCCCCCCCCC(=O)Oc1ccc(CSP2(=O)CO[C@H]3[C@@H](F)[C@H](n4cnc5c(N)ncnc54)O[C@@H]3COP(=O)(O)O[C@@H]3[C@H](F)[C@@H](CO2)O[C@H]3n2cnc3c(=O)[nH]c(N)nc32)cc1 (single isomer, unassigned) [Compound 46b] | 60 |

tested on: peripheral blood mononuclear cell (PBMC); test: Peripheral blood mononuclear cell assay; conditions: PBMC, read-out: PBMC EC50 IFN-α, compounds 1h, washed, 15 hour incubation; interferon-alpha level in medium; average of one to four donors

| Compound | EC50 [nM] |
| --- | --- |
| CC(C)(C)C(=O)OCSP1(=O)CO[C@H]2[C@@H](F)[C@H](n3cnc4c(N)ncnc43)O[C@@H]2COP(=O)(SCOC(=O)C(C)(C)C)O[C@@H]2[C@H](F)[C@@H](CO1)O[C@H]2n1cnc2c(=O)[nH]c(N)nc21 (single isomer, unassigned) [Compound 55c] | 10000 |

same assay, conditions: PBMC, read-out: PBMC EC50 IFN-γ, compounds 1h, washed, 15 hour incubation; interferon-gamma level in medium; average of one to four donors

| Compound | EC50 [nM] |
| --- | --- |
| CC(C)(C)C(=O)OCSP1(=O)CO[C@H]2[C@@H](F)[C@H](n3cnc4c(N)ncnc43)O[C@@H]2COP(=O)(SCOC(=O)C(C)(C)C)O[C@@H]2[C@H](F)[C@@H](CO1)O[C@H]2n1cnc2c(=O)[nH]c(N)nc21 (single isomer, unassigned) [Compound 55c] | 3700 |

same assay, conditions: PBMC, read-out: PBMC EC50 TNF-α, compounds 1h, washed, 15 hour incubation; tumor necrosis factor-alpha level in medium; average of one to four donors

| Compound | EC50 [nM] |
| --- | --- |
| CC(C)(C)C(=O)OCSP1(=O)CO[C@H]2[C@@H](F)[C@H](n3cnc4c(N)ncnc43)O[C@@H]2COP(=O)(SCOC(=O)C(C)(C)C)O[C@@H]2[C@H](F)[C@@H](CO1)O[C@H]2n1cnc2c(=O)[nH]c(N)nc21 (single isomer, unassigned) [Compound 55c] | 7000 |

same assay, conditions: read-out: PBMC EC50 IFN-α; compounds 1h, washed, 15 hour incubation; interferon-alpha level in medium; average of one to four donors

| Compound | EC50 [nM] |
| --- | --- |
| CCCCCCCCCCCCCCCCCCOC(=O)OCSP1(=O)OC[C@H]2O[C@@H](n3cnc4c(N)ncnc43)[C@H](F)[C@@H]2OCP(=O)(O)OC[C@H]2O[C@@H](n3cnc4c(=O)[nH]cnc43)[C@H](O1)[C@@H]2F (stereo partly drawn) [Compound 74b, {[(1S,6R,8R,9R,10R,16R,18R,19R)-8-(6-amino-9H-purin-9-yl)-9,19-difluoro-13-hydroxy-3,13-dioxo-18-(6-oxo-6,9-dihydro-1H-purin-9-yl)-2,4,7,11,14,17-hexaoxa-3λ^5,13λ^5-diphosphatricyclo[14.2.1.0^6,10]nonadecan-3-yl]sulfanyl}methyl octadecyl carbonate] | 2200 |

same assay, conditions: read-out: PBMC EC50 IFN-γ; compounds 1h, washed, 15 hour incubation; interferon-gamma level in medium; average of one to four donors

| Compound | EC50 [nM] |
| --- | --- |
| CCCCCCCCCCCCCCCCCCOC(=O)OCSP1(=O)OC[C@H]2O[C@@H](n3cnc4c(N)ncnc43)[C@H](F)[C@@H]2OCP(=O)(O)OC[C@H]2O[C@@H](n3cnc4c(=O)[nH]cnc43)[C@H](O1)[C@@H]2F (stereo partly drawn) [Compound 74b, {[(1S,6R,8R,9R,10R,16R,18R,19R)-8-(6-amino-9H-purin-9-yl)-9,19-difluoro-13-hydroxy-3,13-dioxo-18-(6-oxo-6,9-dihydro-1H-purin-9-yl)-2,4,7,11,14,17-hexaoxa-3λ^5,13λ^5-diphosphatricyclo[14.2.1.0^6,10]nonadecan-3-yl]sulfanyl}methyl octadecyl carbonate] | 2400 |

same assay, conditions: read-out: PBMC EC50 TNF-α; compounds 1h, washed, 15 hour incubation; tumor necrosis factor-alpha level in medium; average of one to four donors

| Compound | EC50 [nM] |
| --- | --- |
| CCCCCCCCCCCCCCCCCCOC(=O)OCSP1(=O)OC[C@H]2O[C@@H](n3cnc4c(N)ncnc43)[C@H](F)[C@@H]2OCP(=O)(O)OC[C@H]2O[C@@H](n3cnc4c(=O)[nH]cnc43)[C@H](O1)[C@@H]2F (stereo partly drawn) [Compound 74b, {[(1S,6R,8R,9R,10R,16R,18R,19R)-8-(6-amino-9H-purin-9-yl)-9,19-difluoro-13-hydroxy-3,13-dioxo-18-(6-oxo-6,9-dihydro-1H-purin-9-yl)-2,4,7,11,14,17-hexaoxa-3λ^5,13λ^5-diphosphatricyclo[14.2.1.0^6,10]nonadecan-3-yl]sulfanyl}methyl octadecyl carbonate] | 3000 |
